Series [1] is described as follows: physchem. As to conditions: water, pH 7.
Description: Solubility of the compound in water at pH 7.0 by HPLC
Series [2] is described as follows: physchem. As to conditions: water, pH 1.
Description: Solubility of the compound in water at pH 1.0 by HPLC
A short description of series [3]: in vitro. As to conditions: human, liver microsomes. A general note: Microsomes from liver hold many membrane-bound enzymes, among them those of drug oxidation.
Description: Metabolic stability in human liver microsomes assessed as compound remaining after 1 hr
A short description of series [4]: in vitro. As to conditions: CD1, mouse, liver microsomes.
Description: Metabolic stability in CD1 mouse liver microsomes assessed as compound remaining after 1 hr
For series [5], the system named is Mycobacterium tuberculosis. As to the kind of experiment: microbe, parasite or virus in culture. As to conditions: H37Rv.
Series [6] relates to Mycobacterium tuberculosis. As to the kind of experiment: microbe, parasite or virus in culture. As to conditions: H37Rv. The source holds these as a separate data set.
Description: Antitubercular activity against Mycobacterium tuberculosis H37Rv by LORA method
Series [7] in a line: AUC (0-infinity) in CD1 mouse plasma at 40 mg/kg, po administered as single dose. The series is classed as ADME, organism-based. Set-up: time infinity, dose 40 mg/kg, route oral.
Series [8] can be described thus: Cmax in CD1 mouse plasma at 40 mg/kg, po administered as single dose. More on the design: dose 40 mg/kg, route oral. The series is classed as ADME, organism-based.
Series [9] in a line: Half life in CD1 mouse plasma at 40 mg/kg, po administered as single dose. The series is classed as ADME, organism-based. More on the design: dose 40 mg/kg, route oral.
A short description of series [10]: AUC (0-infinity) in CD1 mouse lung at 40 mg/kg, po administered as single dose. More on the design: time infinity, dose 40 mg/kg, route oral. The series is classed as ADME, organism-based.
Series [11] can be described thus: Cmax in CD1 mouse lung at 40 mg/kg, po administered as single dose. More on the design: dose 40 mg/kg, route oral. In kind it is ADME, organism-based.
Series [12] can be described thus: Half life in CD1 mouse lung at 40 mg/kg, po administered as single dose. The series is classed as ADME, organism-based. More on the design: dose 40 mg/kg, route oral.
A short description of series [13]: Cmax in Sprague-Dawley rat at 5 mg/kg, iv administered as single dose. The series is classed as ADME, organism-based. More on the design: dose 5 mg/kg, route intravenous. As to conditions: in vivo.
Series [14] can be described thus: Tmax in Sprague-Dawley rat at 5 mg/kg, iv administered as single dose. In kind it is ADME, organism-based. Set-up: dose 5 mg/kg, route intravenous. As to conditions: in vivo.
Series [15] is described as follows: Half life in Sprague-Dawley rat at 5 mg/kg, iv administered as single dose. As to conditions: in vivo. In kind it is ADME, organism-based. More on the design: dose 5 mg/kg, route intravenous.
Series [16] in a line: AUClast in Sprague-Dawley rat at 5 mg/kg, iv administered as single dose. The series is classed as ADME, organism-based. Set-up: time 0 - last, dose 5 mg/kg, route intravenous. As to conditions: plasma.
Series [17] is described as follows: Cmax in Sprague-Dawley rat at 20 mg/kg, po administered as single dose. In kind it is ADME, organism-based. More on the design: dose 20 mg/kg, route oral. As to conditions: in vivo.
Series [18] is described as follows: Tmax in Sprague-Dawley rat at 20 mg/kg, po administered as single dose. In kind it is ADME, organism-based. Set-up: dose 20 mg/kg, route oral. As to conditions: in vivo.
Series [19] can be described thus: AUClast in Sprague-Dawley rat at 20 mg/kg, po administered as single dose. In kind it is ADME, organism-based. More on the design: time 0 - last, dose 20 mg/kg, route oral. As to conditions: plasma.
The nature of series [20]: Oral bioavailability in Sprague-Dawley rat at 20 mg/kg, po administered as single dose. In kind it is ADME, organism-based. As to conditions: in vivo.
Series [21] can be described thus: Ratio of AUC (0-infinity) in lung to AUC (0-infinity) in plasma of CD1 mouse at 40 mg/kg, po administered as single dose. The series is classed as ADME, organism-based. Set-up: dose 40 mg/kg, route oral.
A short description of series [22]: Thermodynamic solubility in aqueous buffer at pH 1 at 20 degC by HPLC. As to conditions: aqueous buffer. The series is classed as physicochemical.
The nature of series [23]: Thermodynamic solubility in aqueous buffer at pH 7.4 at 20 degC by HPLC. In kind it is physicochemical.

This note sets out measurements from ChEMBL document CHEMBL1629541, “Synthesis and structure-activity relationships of aza- and diazabiphenyl analogues of the antitubercular drug (6S)-2-nitro-6-{[4-(trifluoromethoxy)benzyl]oxy}-6,7-dihydro-5H-imidazo[2,1-b][1,3]oxazine (PA-824)” (J Med Chem, 2010).

SMILES strings stand for the structures. Converted amounts (≈) assume the structure as drawn.

By solubility is commonly meant how much of the substance goes into solution per volume. A low value points to little dissolved substance. One may read the fraction remaining as the share of the starting amount still present when the sample was taken. The low end stands for more turnover, the high end for less turnover. `O=[N+]([O-])c1cn2c(n1)OC[C@@H](OCc1cncc(-c3ccc(F)cc3)c1)C2`: the solubility in [1] was 45 µg/mL (≈ 122 µM); in series [2], 41000 µg/mL (≈ 111000 µM). Moreover, the figures for the share remaining at 1 h in [3] and in series [4] were 71% and 39%, respectively. In addition, the values for the MIC in series [5] and in [6] were 0.31 µM (≈ 0.115 µg/mL) and 7.7 µM (≈ 2.85 µg/mL), respectively.
Usually AUC(0-inf) stands for total exposure, with the tail of the curve extrapolated. Read a high AUC(0-inf) as high exposure. Usually Cmax stands for the peak of the concentration-time curve. As usually defined, the half-life is the time in which the quantity being followed falls by half. For orientation: Tmax means the time from dosing to the highest level. As usually defined, the AUC(0-t) is exposure summed from dosing to a finite time, without extrapolation to infinity. For orientation: bioavailability means the share of a dose that reaches the circulation, judged against a reference dose that is usually intravenous. Low readings indicate little systemic uptake, high ones much systemic uptake. Take `O=[N+]([O-])c1cn2c(n1)OC[C@@H](OCc1ccc(-c3ccc(OC(F)(F)F)cc3)cn1)C2`: the AUC(0-inf) in series [7] was determined as 418000 ng·h/mL; in [10], 427000 ng·h/mL. Moreover, the Cmax in series [8] worked out at 26000 ng/mL; in series [11] it was 35000 ng/mL; in series [13], 8700 ng/mL; in series [17], 16000 ng/mL. Also, the results for the half-life in [9], in series [12] and in series [15] were 5.4 h, 8.2 h and over 6 h, respectively. Besides, the Tmax in [14] amounted to 0.083 h; in series [18], 6 h. The results for the AUC(0-t) in series [16] and in series [19] were 35900 ng·h/mL and 66700 ng·h/mL, respectively. For the same molecule, the bioavailability in series [20] came out at 46%. Moreover, the MIC in series [5] worked out at 0.065 µM (≈ 0.0284 µg/mL); in series [6] it was 3.7 µM (≈ 1.61 µg/mL).
As usually defined, the Kp is the ratio of the level in a tissue or fluid to that in plasma or blood. The solubility (thermodynamic) is solubility found after equilibrating the solid with the medium. For `O=[N+]([O-])c1cn2c(n1)OC[C@@H](OCc1ccc(-c3ccc(OC(F)(F)F)c(F)c3)cn1)C2`, the AUC(0-inf) is 137000 ng·h/mL in [7] and 155000 ng·h/mL in series [10]. For the same molecule, the Cmax in series [8] was 7600 ng/mL; in series [11] it was 9100 ng/mL. Besides, the half-life in series [9] is 8.4 h; in series [12], 7.9 h. Also, the Kp in [21] stood at 1.1. Besides, the figures for the solubility (thermodynamic) in series [22] and in series [23] were 67 µg/mL (≈ 147 µM) and 1.5 µg/mL (≈ 3.3 µM), respectively. Also, the solubility in series [1] worked out at 30 µg/mL (≈ 66 µM); in series [2], 334 µg/mL (≈ 735 µM). In addition, the share remaining at 1 h in series [3] worked out at 97%; in series [4] it was 86%. In addition, the MIC in [5] was 0.05 µM (≈ 0.0227 µg/mL); in [6] it was 1.3 µM (≈ 0.591 µg/mL).
In the case of `O=[N+]([O-])c1cn2c(n1)OC[C@@H](OCc1ccc(-c3ccc(F)cc3)nc1)C2`, the AUC(0-inf) in series [7] worked out at 61000 ng·h/mL; in series [10], 136000 ng·h/mL. Also, the Cmax in series [8] worked out at 5300 ng/mL; in series [11], 11000 ng/mL. In addition, the values for the half-life in series [9] and in series [12] were 2.7 h and 2.8 h, respectively. The solubility (thermodynamic) is over 93 µg/mL in series [22] and 5.9 µg/mL (≈ 15.9 µM) in series [23]. This molecule also displayed a solubility in series [2] of 1000 µg/mL (≈ 2700 µM). Besides, the results for the amount remaining at 1 h in [3] and in series [4] were 88% and 80%, respectively. For the same molecule, the MIC was 0.06 µM (≈ 0.0222 µg/mL) in series [5] and 2.9 µM (≈ 1.07 µg/mL) in [6].
Turning to `O=[N+]([O-])c1cn2c(n1)OC[C@@H](OCc1ccc(-c3ccc(OC(F)(F)F)c(Cl)c3)nc1)C2`, the AUC(0-inf) is 88000 ng·h/mL in series [7] and 284000 ng·h/mL in [10]. Further, the Cmax in series [8] turned out to be 2900 ng/mL; in series [11] it was 10000 ng/mL. Also, the half-life is 22 h in [9] and 14 h in series [12]. The thermodynamic solubility was determined as 17 µg/mL (≈ 36.1 µM) in series [22] and 0.19 µg/mL (≈ 0.404 µM) in series [23]. Further, in series [2], the solubility came out at 39 µg/mL (≈ 82.8 µM). The values for the share remaining at 1 h in series [3] and in series [4] were 87% and 77%, respectively. Moreover, the MIC in [5] is 0.017 µM (≈ 0.008 µg/mL); in [6], 1 µM (≈ 0.471 µg/mL).
`O=[N+]([O-])c1cn2c(n1)OC[C@@H](OCc1ccc(-c3ccc(OC(F)(F)F)cc3)nn1)C2`: the AUC(0-inf) in [7] was found to be 52000 ng·h/mL; in series [10], 94000 ng·h/mL. For the same molecule, the Cmax in series [8] stood at 3600 ng/mL; in [11], 7000 ng/mL. The half-life is 2.9 h in [9] and 3.4 h in series [12]. For the same molecule, the figures for the thermodynamic solubility in series [22] and in [23] were 10 µg/mL (≈ 22.9 µM) and 3 µg/mL (≈ 6.86 µM), respectively. In series [2], this molecule registered a solubility of 31 µg/mL (≈ 70.9 µM). Besides, the figures for the share remaining at 1 h in series [3] and in series [4] were 94% and 92%, respectively. Also, the results for the MIC in series [5] and in series [6] were 0.075 µM (≈ 0.0328 µg/mL) and 1.7 µM (≈ 0.743 µg/mL), respectively.
For `O=[N+]([O-])c1cn2c(n1)OC[C@@H](OCc1cnc(-c3ccc(OC(F)(F)F)cc3)cn1)C2`, the AUC(0-inf) is 152000 ng·h/mL in [7] and over 324000 ng·h/mL in [10]. In addition, the Cmax in [8] came to 9600 ng/mL; in series [11], 23000 ng/mL; in [13] it was 3900 ng/mL; in series [17], 7000 ng/mL. For the same molecule, the figures for the half-life in [9], in series [12] and in [15] were 7.2 h, over 8 h and 24 h, respectively. Further, the Tmax in [14] was determined as 0.167 h; in series [18] it was 5 h. The exposure AUC(0-t) in series [16] came out at 16300 ng·h/mL; in [19], 29400 ng·h/mL. This molecule yielded a bioavailability in series [20] of 45%. The solubility (thermodynamic) in series [22] and in [23] was 0.44 µg/mL (≈ 1.01 µM) in each case. This molecule also showed a solubility in series [2] of 2.8 µg/mL (≈ 6.4 µM). The same molecule came in with a fraction remaining at 1 h in [3] of 98%. The MIC is 0.023 µM (≈ 0.0101 µg/mL) in [5] and 1 µM (≈ 0.437 µg/mL) in series [6].
